Assay [1] has as its system Escherichia coli. The assay is described as follows: Antibacterial activity against wild type Escherichia coli BW25113. It is filed as functional.
Assay [2] concerns Escherichia coli. The assay is described as follows: Antibacterial activity against tolC deficient Escherichia coli GD100. It is filed as functional.
Assay [3] relates to Escherichia coli. The assay is described as follows: Antibacterial activity against speE deficient Escherichia coli JW0117-1. It is filed as functional.
Assay [4] deals with Escherichia coli. The assay is described as follows: Antibacterial activity against gshB deficient Escherichia coli JW2914-1. It is filed as functional.
Assay [5] concerns Escherichia coli. The assay can be described thus: Antibacterial activity against gspS deficient Escherichia coli JW2956-1. It is filed as functional.
Assay [6] relates to Escherichia coli. The assay is described as follows: Antibacterial activity against ygiBC, yjfMC, gspS deficient Escherichia coli GD108. It is filed as functional.
Assay [7] relates to Escherichia coli. The assay can be described thus: Antibacterial activity against tolC, speE deficient Escherichia coli GD106. It is filed as functional.
Assay [8] has as its system Escherichia coli. The assay can be described thus: Antibacterial activity against tolC, gshB deficient Escherichia coli GD107. It is filed as functional.
Assay [9] deals with Escherichia coli. The assay is described as follows: Antibacterial activity against wild type Escherichia coli BW25113 absence of glutathione. It is filed as functional.
The subject of assay [10] is Escherichia coli. The assay can be described thus: Antibacterial activity against wild type Escherichia coli BW25113 presence of 5 mM of glutathione. It is filed as functional.
Assay [11] concerns Escherichia coli. The assay is described as follows: Antibacterial activity against wild type Escherichia coli BW25113 presence of 10 mM of glutathione. It is filed as functional.
The subject of assay [12] is Escherichia coli. The assay is described as follows: Antibacterial activity against wild type Escherichia coli BW25113 presence of 15 mM of glutathione. It is filed as functional.
Assay [13] deals with Escherichia coli. The assay is described as follows: Antibacterial activity against tolC deficient Escherichia coli GD100 absence of glutathione. It is filed as functional.
Assay [14] relates to Escherichia coli. The assay is described as follows: Antibacterial activity against tolC deficient Escherichia coli GD100 presence of 5 mM of glutathione. It is filed as functional.
Assay [15] relates to Escherichia coli. The assay is described as follows: Antibacterial activity against tolC deficient Escherichia coli GD100 presence of 10 mM of glutathione. It is filed as functional.
Assay [16] relates to Escherichia coli. The assay is described as follows: Antibacterial activity against tolC deficient Escherichia coli GD100 presence of 15 mM of glutathione. It is filed as functional, organism-based.
Assay [17] concerns Escherichia coli. The assay is described as follows: Antibacterial activity against kanamycin-resistant acrAB, acrEF deficient Escherichia coli W4680AE absence of glutathione. It is filed as functional.
The test system of assay [18] is Escherichia coli. The assay can be described thus: Antibacterial activity against kanamycin-resistant acrAB, acrEF deficient Escherichia coli W4680AE presence of 5 mM of glutathione. It is filed as functional.
Assay [19] deals with Escherichia coli. The assay can be described thus: Antibacterial activity against kanamycin-resistant acrAB, acrEF deficient Escherichia coli W4680AE presence of 10 mM of glutathione. It is filed as functional.
Assay [20] has as its system Escherichia coli. The assay can be described thus: Antibacterial activity against kanamycin-resistant acrAB, acrEF deficient Escherichia coli W4680AE presence of 15 mM of glutathione. It is filed as functional.

In brackets after ≈: the same amount, converted by molar mass. Activity calls are given as the source filed them. The calls are words filed in the database; no cut-off is given here.

For the compound `NCC[C@H](O)C(=O)N[C@@H]1C[C@H](N)[C@@H](O[C@H]2O[C@H](CN)[C@@H](O)[C@H](O)[C@H]2O)[C@H](O)[C@H]1O[C@H]1O[C@H](CO)[C@@H](O)[C@H](N)[C@H]1O` [AMIKACIN], the MIC against Escherichia coli [1] was 1 µg/mL (≈ 1.71 µM); in the assay on Escherichia coli [2], 1 µg/mL (≈ 1.71 µM); against Escherichia coli [3] it was 16 µg/mL (≈ 27.3 µM); against Escherichia coli [4], 4 µg/mL (≈ 6.83 µM); in the assay with Escherichia coli [5] it was 2 µg/mL (≈ 3.42 µM); in the assay with Escherichia coli [6], 1 µg/mL (≈ 1.71 µM). Moreover, the figures for the MIC against Escherichia coli [7] and in the assay with Escherichia coli [8] were 8 µg/mL (≈ 13.7 µM) and 2 µg/mL (≈ 3.42 µM), respectively.
Take `CC1(C)S[C@@H]2[C@H](NC(=O)[C@H](N)c3ccccc3)C(=O)N2[C@H]1C(=O)O` [AMPICILLIN]: the MIC against Escherichia coli [1] came out at 5 µg/mL (≈ 14.3 µM); in the assay on Escherichia coli [2] it was 5 µg/mL (≈ 14.3 µM); in the assay on Escherichia coli [3], 5 µg/mL (≈ 14.3 µM); against Escherichia coli [4] it was 10 µg/mL (≈ 28.6 µM); with Escherichia coli [5] it was 10 µg/mL (≈ 28.6 µM); with Escherichia coli [6], 5 µg/mL (≈ 14.3 µM). Moreover, the MIC against Escherichia coli [7] and against Escherichia coli [8] was 5 µg/mL (≈ 14.3 µM) throughout.
As to `CC[C@H]1OC(=O)[C@H](C)[C@@H](O[C@H]2C[C@@](C)(OC)[C@@H](O)[C@H](C)O2)[C@H](C)[C@@H](O[C@@H]2O[C@H](C)C[C@H](N(C)C)[C@H]2O)[C@](C)(O)C[C@@H](C)C(=O)[C@H](C)[C@@H](O)[C@]1(C)O` [ERYTHROMYCIN], the MIC in the assay with Escherichia coli [1] was found to be 32 µg/mL (≈ 43.6 µM); against Escherichia coli [2], 1 µg/mL (≈ 1.36 µM); with Escherichia coli [3], 32 µg/mL (≈ 43.6 µM); against Escherichia coli [4], 64 µg/mL (≈ 87.2 µM); with Escherichia coli [5] it was 64 µg/mL (≈ 87.2 µM); in the assay on Escherichia coli [6], 64 µg/mL (≈ 87.2 µM). Besides, the MIC was determined as 1 µg/mL (≈ 1.36 µM) in the assay with Escherichia coli [7]; 1 µg/mL (≈ 1.36 µM) in the assay on Escherichia coli [8]; 128 µg/mL (≈ 174 µM) in the assay on Escherichia coli [9]; 512 µg/mL with Escherichia coli [10]; 512 µg/mL in the assay with Escherichia coli [11]; 512 µg/mL in the assay with Escherichia coli [12]. The MIC is 4 µg/mL (≈ 5.45 µM) against Escherichia coli [13]; 4 µg/mL in the assay on Escherichia coli [14]; 4 µg/mL in the assay with Escherichia coli [15]; 4 µg/mL (≈ 5.45 µM) in the assay on Escherichia coli [17]; 4 µg/mL in the assay on Escherichia coli [18]; 8 µg/mL with Escherichia coli [19]. Also, the MIC with Escherichia coli [20] turned out to be 32 µg/mL. Moreover, the MIC result with Escherichia coli [16] was “Active”.
In the case of `NC[C@H]1O[C@H](O[C@H]2[C@H](O)[C@@H](O[C@H]3O[C@H](CO)[C@@H](O)[C@H](N)[C@H]3O)[C@H](N)C[C@@H]2N)[C@H](O)[C@@H](O)[C@@H]1O` [KANAMYCIN], the MIC with Escherichia coli [1] turned out to be 0.78 µg/mL (≈ 1.61 µM); against Escherichia coli [2], 0.78 µg/mL (≈ 1.61 µM); against Escherichia coli [3], 12.5 µg/mL (≈ 25.8 µM); against Escherichia coli [4] it was 6.25 µg/mL (≈ 12.9 µM); against Escherichia coli [5], 1.56 µg/mL (≈ 3.22 µM); in the assay with Escherichia coli [6], 1.56 µg/mL (≈ 3.22 µM). Moreover, the MIC against Escherichia coli [7] came to 6.25 µg/mL (≈ 12.9 µM); with Escherichia coli [8], 3.12 µg/mL (≈ 6.45 µM); against Escherichia coli [9] it was 1.56 µg/mL (≈ 3.22 µM); with Escherichia coli [10], 25 µg/mL; with Escherichia coli [11] it was 50 µg/mL; with Escherichia coli [12], 50 µg/mL. Further, the MIC worked out at 1.56 µg/mL (≈ 3.22 µM) against Escherichia coli [13], 25 µg/mL in the assay with Escherichia coli [14] and 50 µg/mL in the assay on Escherichia coli [15]. For the same compound, the MIC result in the assay with Escherichia coli [16] is “Active”.
As to `CCn1cc(C(=O)O)c(=O)c2cc(F)c(N3CCNCC3)cc21` [NORFLOXACIN], the MIC turned out to be 0.04 µg/mL (≈ 0.125 µM) in the assay on Escherichia coli [1]; 0.01 µg/mL (≈ 0.0313 µM) against Escherichia coli [2]; 0.02 µg/mL (≈ 0.0626 µM) against Escherichia coli [3]; 0.04 µg/mL (≈ 0.125 µM) against Escherichia coli [4]; 0.02 µg/mL (≈ 0.0626 µM) against Escherichia coli [5]; 0.01 µg/mL (≈ 0.0313 µM) in the assay on Escherichia coli [6]. The MIC in the assay with Escherichia coli [7] was 0.005 µg/mL (≈ 0.0157 µM); against Escherichia coli [8], 0.0025 µg/mL (≈ 0.00783 µM); against Escherichia coli [9] it was 0.04 µg/mL (≈ 0.125 µM); with Escherichia coli [10], 0.16 µg/mL; with Escherichia coli [11] it was 0.64 µg/mL; in the assay with Escherichia coli [12] it was 1.28 µg/mL. Further, the MIC with Escherichia coli [13] worked out at 0.01 µg/mL (≈ 0.0313 µM); with Escherichia coli [14], 0.02 µg/mL; with Escherichia coli [15], 0.08 µg/mL; in the assay on Escherichia coli [17] it was 0.005 µg/mL (≈ 0.0157 µM); with Escherichia coli [18], 0.01 µg/mL; in the assay on Escherichia coli [19], 0.02 µg/mL. In addition, the MIC with Escherichia coli [20] is 0.16 µg/mL. Further, the MIC entry with Escherichia coli [16] is “Active”.
On to `CO[C@@H]1[C@@H](OC(N)=O)[C@@H](O)[C@H](Oc2ccc3c(O)c(NC(=O)c4ccc(O)c(CC=C(C)C)c4)c(=O)oc3c2C)OC1(C)C` [NOVOBIOCIN], for which the MIC against Escherichia coli [1] is 32 µg/mL (≈ 52.2 µM); against Escherichia coli [2], 1 µg/mL (≈ 1.63 µM); against Escherichia coli [3], 64 µg/mL (≈ 104 µM); against Escherichia coli [4] it was 256 µg/mL (≈ 418 µM); against Escherichia coli [5] it was 64 µg/mL (≈ 104 µM); with Escherichia coli [6], 32 µg/mL (≈ 52.2 µM). In addition, the MIC against Escherichia coli [7] and in the assay with Escherichia coli [8] was 1 µg/mL (≈ 1.63 µM) each time.
In the case of `CN[C@@H]1[C@H](O)[C@H](NC)[C@H]2O[C@@]3(O)C(=O)C[C@@H](C)O[C@H]3O[C@@H]2[C@H]1O` [SPECTINOMYCIN], the MIC against Escherichia coli [1] amounted to 25 µg/mL (≈ 75.2 µM); against Escherichia coli [2], 12.5 µg/mL (≈ 37.6 µM); with Escherichia coli [3], 25 µg/mL (≈ 75.2 µM); in the assay with Escherichia coli [4], 25 µg/mL (≈ 75.2 µM); in the assay with Escherichia coli [5], 25 µg/mL (≈ 75.2 µM); against Escherichia coli [6] it was 25 µg/mL (≈ 75.2 µM). The figures for the MIC in the assay on Escherichia coli [7] and with Escherichia coli [8] were 25 µg/mL (≈ 75.2 µM) and 12.5 µg/mL (≈ 37.6 µM), respectively.

For orientation: MIC means the least concentration at which growth counts as inhibited.

(Values after ChEMBL document CHEMBL1687812, “Interplay between drug efflux and antioxidants in Escherichia coli resistance to antibiotics” (2010).)
